Data on two compounds can be found in ChEMBL document CHEMBL3779794, “Efficient synthesis and activity of beneficial intestinal flora of two lactulose-derived oligosaccharides” (Eur J Med Chem, 2016).

Each structure is given as a SMILES string. Active and inactive are the calls of the source. The calls are words filed in the database; no cut-off is given here.

The test system of the experiment is Lactobacillus acidophilus. Briefly: Prebiotic activity in Lactobacillus acidophilus in simulated intestinal fluid after 1 to 3 hrs. In kind it is functional.

In the case of `OC[C@H]1O[C@@H](O[C@@H]2[C@H](O)CO[C@](O)(CO)[C@H]2O)[C@H](O)[C@@H](O)[C@H]1O`, the result was Active. To `OC[C@H]1O[C@@H](O[C@H]2[C@H](O)[C@H](O)CO[C@]2(O)CO)[C@H](O)[C@@H](O)[C@H]1O` belongs “Active”.
